Assay results: patent publication US20260234159A1, “SMALL MOLECULE TREATMENT OF FATTY LIVER DISEASE AND HCC” (SCANDIEDGE THERAPEUTICS AB, priority 2023, published 2026)

What was measured:
HepG2 cells [1] = assay: Mitochondrial membrane potential assay (TMRE); assay type: cell-based, human; conditions: 10 μM, one day
Procedure: HepG2 cells were seeded into a 6-well plate at 400,000 cells per well. After treatment with the compounds at desired concentration and time, TMRE (ab113852, abcam), Autophagy (ab139484, abcam), ROS (ab113851, abcam), and Lipid peroxidation (ab243377, abcam) assay were performed according to manufacturer's instructions. Fluorescence images were taken using ZOE™ Fluorescent Cell Imager (Biorad) and ROI of fluorescence intensity was measured and calculated by Image J. For microplate reader florescence assay, 40,000 of HepG2 cells were seeded into a 96-well plate and triplicated. GFP (Ex480 nm, Em530 nm) and RFP (Ex549 nm, Em574 nm) were measured using a microplate reader (Hidex Sense Meta Plus).

HepG2 cells [2] = assay: Wound healing assay; assay type: cell-based; conditions: Homo sapiens, HepG2, 96 h, day 4, untreated 100% wound closure, read-out: wound healing delayed by
Procedure: Transwell membrane was coated with 100 μl collagen (Sigma C3867, USA) diluted with PBS to a concentration of 1 mg/ml. After overnight incubation at 4° C., the collagen solution was discarded and the membrane was washed with PBS. 100,000 cells in 200 μl serum free media together with the tested compounds were added into the upper well and 600 μl of 10% FBS supplemented growth media was added to the lower well as an invasive attractant in a 24-well plate. Cells were incubated at 37° C. in a CO2 incubator for one day. The cells were fixed with 3.7% formaldehyde for 30 minutes at room temperature and washed with PBS twice. The cells were stained with 1% crystal violet in PBS for 20 minutes and residual cells in inner membrane were swabbed gently with a cotton swab. Invaded cells located at the outer membrane were imaged by ZOE Fluorescent Cell Imager (Bio-Rad, USA) and counted by image. For wound healing assay, 100,000 cells per well were seeded into 24-well plates and grown until 95-100% confluent. Linear wound was created by using a 200 μl pipette tip. Image was recorded at the time point of day 0 until control group wound closure with 1 μM of compounds by ZOE Fluorescent Cell Imager (Bio-Rad, USA). Wound areas were measured using ImageJ software.

[3] = In vivo toxicological study in rats: clinical observations and body weight; conditions: 300 mg/kg oral administration
Procedure: Forty-two male and forty-two female rats of the Wistar strain were allocated to the study. Three groups of three males and three females were given doses of 30, 100 and 300 mg/kg of target compounds (Table 8). The vehicle was 1.5 w/w % HPMC, 1.5 w/w % PS80 in 10 mM PBS, pH 7 and dose volume were 5 mL/kg.
The animals were acclimatised at least 14 day prior to the study and exposed to a 12 hours light, 12 hours dark light cycle. The formulations were administered via oral gavage. Administration occurred once daily in the morning for seven consecutive days.
A check of animal health and welfare status was done at least once on working days and weekend days.
Body weights were recorded the week before and within 24 hours before start of dosing, on Day 3 and on necropsy Day 8.

[4] = In vivo toxicological study in rats: haematology; design: species or system rats of the Wistar strain
Procedure: Forty-two male and forty-two female rats of the Wistar strain were allocated to the study. Three groups of three males and three females were given doses of 30, 100 and 300 mg/kg of target compounds (Table 8). The vehicle was 1.5 w/w % HPMC, 1.5 w/w % PS80 in 10 mM PBS, pH 7 and dose volume were 5 mL/kg. The animals were acclimatised at least 14 day prior to the study and exposed to a 12 hours light, 12 hours dark light cycle. The formulations were administered via oral gavage. Administration occurred once daily in the morning for seven consecutive days. Blood for scheduled haematology and plasma chemistry were taken at necropsy. For plasma chemistry, 0.6 ml blood (lithium heparin) per animal and for haematology, 0.5 ml blood (K2EDTA) per animal. The blood and plasma were analysed using Exigo analyzer and Vetscan equipment. Blood was analysed within 60 min of sampling. On the morning of analysis, the Exigo analyzer was checked against a reference sample provided by the manufacturer, and a control sample analysis cycle was performed (Table 9).

[5] = female, 30 mg/kg oral daily 7 d
[6] = female, 100 mg/kg oral daily 7 d
[7] = female, 300 mg/kg oral daily 7 d

## COc1ccc(C(=O)Nc2sc3c(c2C#N)CCCCC3)cc1OC [PKL-A135, N-(3-cyano-5,6,7,8-tetrahydro-4H-cyclohepta[b]thiophen-2-yl)-3,4-dimethoxy-benzamide]
HepG2 cells [1]
  mitochondrial membrane potential: significantly decreased
HepG2 cells [2]
  inhibition at 1 µM: 31.2%
[3]
  tolerability (adverse clinical signs, body weight, clinical pathology parameters): well tolerated
[4]; [5]
  GRAN: 0.97 10^9/l
  HCT: 41.7%
  HGB: 14.2 g/dL
  LYM: 5.4 10^9/l
  MCH: 19.5 pg
  MCHC: 34.1 g/dL
  MCV: 57.4 fL
  MONO: 0.17 10^9/l
  PLT: 1014 10^9/l
  RBC: 7.26 10^12/l
  RDW %: 14.2%
  WBC: 6.6 10^9/l
[4]; [6]
  GRAN: 1.33 10^9/l
  HCT: 42.1%
  HGB: 14.4 g/dL
  LYM: 6.7 10^9/l
  MCH: 19.9 pg
  MCHC: 34.1 g/dL
  MCV: 58.4 fL
  MONO: 0.27 10^9/l
  PLT: 978 10^9/l
  RBC: 7.21 10^12/l
  RDW %: 13.7%
  WBC: 8.3 10^9/l
[4]; [7]
  GRAN: 1.10 10^9/l
  HCT: 42.8%
  HGB: 14.7 g/dL
  LYM: 5.1 10^9/l
  MCH: 20.8 pg
  MCHC: 34.2 g/dL
  MCV: 60.8 fL
  MONO: 0.20 10^9/l
  PLT: 1011 10^9/l
  RBC: 7.04 10^12/l
  RDW %: 13.8%
  WBC: 6.4 10^9/l
[4]; male, 30 mg/kg oral daily 7 d
  GRAN: 1.83 10^9/l
  HCT: 44.3%
  HGB: 15 g/dL
  LYM: 6.5 10^9/l
  MCH: 19.7 pg
  MCHC: 33.9 g/dL
  MCV: 58.2 fL
  MONO: 0.30 10^9/l
  PLT: 841 10^9/l
  RBC: 7.62 10^12/l
  RDW %: 14.1%
  WBC: 8.6 10^9/l
[4]; male, 100 mg/kg oral daily 7 d
  GRAN: 1.17 10^9/l
  HCT: 43.2%
  HGB: 14.6 g/dL
  LYM: 6.1 10^9/l
  MCH: 19.6 pg
  MCHC: 33.7 g/dL
  MCV: 58.1 fL
  MONO: 0.17 10^9/l
  PLT: 815 10^9/l
  RBC: 7.43 10^12/l
  RDW %: 14.4%
  WBC: 7.4 10^9/l
[4]; male, 300 mg/kg oral daily 7 d
  GRAN: 1.13 10^9/l
  HCT: 43.8%
  HGB: 14.9 g/dL
  LYM: 6.2 10^9/l
  MCH: 20.7 pg
  MCHC: 34 g/dL
  MCV: 60.9 fL
  MONO: 0.20 10^9/l
  PLT: 924 10^9/l
  RBC: 7.20 10^12/l
  RDW %: 14.0%
  WBC: 7.5 10^9/l

## COc1ccccc1NC(=O)N1CCc2c(sc(NC(=O)c3cccc4ccccc34)c2C#N)C1 [PKL-A152]
[3]
  tolerability (adverse clinical signs, body weight, clinical pathology parameters): well tolerated
[4]; [5]
  GRAN: 1.00 10^9/l
  HCT: 41.5%
  HGB: 14.1 g/dL
  LYM: 5.6 10^9/l
  MCH: 19.5 pg
  MCHC: 34.1 g/dL
  MCV: 57.2 fL
  MONO: 0.17 10^9/l
  PLT: 1089 10^9/l
  RBC: 7.24 10^12/l
  RDW %: 13.9%
  WBC: 6.8 10^9/l
[4]; [6]
  GRAN: 1.20 10^9/l
  HCT: 42.0%
  HGB: 14.3 g/dL
  LYM: 5.7 10^9/l
  MCH: 19.5 pg
  MCHC: 34 g/dL
  MCV: 57.4 fL
  MONO: 0.17 10^9/l
  PLT: 1122 10^9/l
  RBC: 7.32 10^12/l
  RDW %: 14.0%
  WBC: 7.1 10^9/l
[4]; [7]
  GRAN: 1.03 10^9/l
  HCT: 42.9%
  HGB: 14.7 g/dL
  LYM: 4.8 10^9/l
  MCH: 19.7 pg
  MCHC: 34.1 g/dL
  MCV: 57.7 fL
  MONO: 0.23 10^9/l
  PLT: 1062 10^9/l
  RBC: 7.43 10^12/l
  RDW %: 14.1%
  WBC: 6.0 10^9/l
[4]; male, 30 mg/kg oral daily 7 d
  GRAN: 1.50 10^9/l
  HCT: 46.3%
  HGB: 15.6 g/dL
  LYM: 5.9 10^9/l
  MCH: 19.6 pg
  MCHC: 33.8 g/dL
  MCV: 58.0 fL
  MONO: 0.23 10^9/l
  PLT: 922 10^9/l
  RBC: 7.97 10^12/l
  RDW %: 14.2%
  WBC: 7.7 10^9/l
[4]; male, 100 mg/kg oral daily 7 d
  GRAN: 1.47 10^9/l
  HCT: 44.7%
  HGB: 15.1 g/dL
  LYM: 6.9 10^9/l
  MCH: 19.8 pg
  MCHC: 33.8 g/dL
  MCV: 58.8 fL
  MONO: 0.17 10^9/l
  PLT: 990 10^9/l
  RBC: 7.63 10^12/l
  RDW %: 14.6%
  WBC: 8.5 10^9/l
[4]; male, 300 mg/kg oral daily 7 d
  GRAN: 1.17 10^9/l
  HCT: 45.6%
  HGB: 15.4 g/dL
  LYM: 5.8 10^9/l
  MCH: 19.7 pg
  MCHC: 33.8 g/dL
  MCV: 58.4 fL
  MONO: 0.17 10^9/l
  PLT: 1046 10^9/l
  RBC: 7.80 10^12/l
  RDW %: 14.4%
  WBC: 7.2 10^9/l
